Assay [1] has as its system THP1-Dual cells (ISG54 promoter Lucia luciferase reporter). Put plainly: THP-1 Dual Lucia Reporter Gene Assay. The format is cell-based, human. The following applies: Lucia luciferase signal induction, 20 hours at 37° C., read-out: Cellular THP 1 EC50. How it is done: THP1-Dual™ cells (InvivoGen #thpd-nfis) were derived from the human THP-1 monocyte cell line by stable integration of the Lucia luciferase gene, a secreted luciferase reporter gene, under the control of an ISG54 (interferon-stimulated gene) minimal promoter in conjunction with five interferon (IFN)-stimulated response elements. […] The cell plates were dosed with 62.5 nL of the testing compounds, and then incubated at 37° C. for 20 hours. At the end of the incubation, 15 μL/well of the QUANTI-Luc™ (InvivoGen #rep-q1c1) were added, and luminescence was measured immediately using the LeadSeeker.
Compound concentration versus percent signal induction curves were fitted to generate EC50 values.
Background: A reporter such as luciferase makes a cellular process visible.

Assay [2] has as its target Human STING (residues 140-379, H232R) (Homo sapiens (Human), UniProt Q86WV6, H232R). The assay can be described thus: Human STING TR-FRET Assay. The note with it: read-out: Enz-TR-Fret IC50, fluorescein labeled ligand 100 nM, STING protein 100 nM, 60 minutes at rt.
Protocol: The sequence was verified before recombinant protein expression using E. coli expression system.
For expression, STING expression vector was transformed into BL21(DE3) cells. The expression was induced by adding IPTG and expressing in 16° C. for 20 hours.
Biotinylation was confirmed by Mass Spectrometry analysis.
Then 2 uL STING assay buffer containing STING protein (100 nM final) was added and the mixture was incubated at rt for 60 minutes. The plates were then read on a BMG PheraStar Plus reader (LanthaScreen module).
For the assay method described above, test compound percent inhibition, at various concentrations, was calculated relative to untreated and DMSO only treated samples. Compound concentration versus percent inhibition curves were fitted to generate IC50 values.

Like-named read-outs stand apart in the source and are kept apart here.

A word on the EC50: it is the concentration needed to bring the measured effect to its halfway point. For orientation: IC50 means the midpoint of a concentration-inhibition curve.

Sequence of Human STING (residues 140-379, H232R) (Q86WV6 140-379 H232R): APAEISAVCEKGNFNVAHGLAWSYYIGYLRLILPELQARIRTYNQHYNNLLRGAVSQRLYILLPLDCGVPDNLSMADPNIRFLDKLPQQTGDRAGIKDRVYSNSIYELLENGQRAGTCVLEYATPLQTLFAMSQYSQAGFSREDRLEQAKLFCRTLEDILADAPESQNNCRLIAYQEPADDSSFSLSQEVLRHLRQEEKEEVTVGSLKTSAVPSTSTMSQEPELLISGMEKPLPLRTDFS

Regarding `Nc1nc2c(ncn2[C@@H]2O[C@@H]3COP(=O)(S)O[C@@H]4[C@@H](COP(=O)(O)O[C@@H]2[C@@H]3F)C[C@@H](Nc2ccncn2)[C@@H]4F)c(=O)[nH]1` (stereo partly drawn) [Compound I-21, 2-amino-9-[(2S,5R,7R,8S,12aR,14R,15S,15aR,16R)-15,16-difluoro-10-hydroxy-2,10-dioxido-14-(pyrimidin-4-ylamino)-2-sulfanyldecahydro-5,8-methanocyclopenta[1][1,3,6,9,11,2,10]pentaoxadiphosphacyclotetradecin-7-yl]-1,9-dihydro-6H-purin-6-one], in assay [1] (Homo sapiens, THP1-Dual, 20 h), the EC50 lay in the range of 1 to 10 µM. The IC50 in assay [2] is less than 1000 nM.
In the same order, the values of `Nc1nc2c(ncn2[C@@H]2O[C@@H]3COP(=O)(O)O[C@@H]4[C@@H](COP(=O)(S)O[C@@H]2[C@@H]3O)C[C@@H](Nc2ncncn2)[C@@H]4F)c(=O)[nH]1` (single isomer, unassigned) [Compound I-42] are 1 to 10 µM and less than 1000 nM.
For `Nc1nc2c(ncn2[C@@H]2O[C@@H]3COP(=O)(S)O[C@@H]4[C@@H](COP(=O)(S)O[C@@H]2[C@@H]3O)C[C@@H](Oc2ccncn2)[C@@H]4F)c(=O)[nH]1` (single isomer, unassigned) [Compound I-39a], in that order: 1 to 10 µM and less than 1000 nM.
For `Nc1nc2c(ncn2[C@@H]2O[C@@H]3COP(=O)(O)O[C@H]4C[C@H](Oc5ccncn5)C[C@@H]4COP(=O)(O)O[C@@H]2[C@@H]3O)c(=O)[nH]1` [Compound I-10, 2-amino-9-[(5R,7R,8R,12aR,14R,15aS,16R)-2,10,16-trihydroxy-2,10-dioxido-14-(pyrimidin-4-yloxy)decahydro-5,8-methanocyclopenta[1][1,3,6,9,11,2,10]pentaoxadiphosphacyclotetradecin-7-yl]-1,9-dihydro-6H-purin-6-one], in that order: 1 to 10 µM and less than 1000 nM.
Turning to `Nc1nc2c(ncn2[C@@H]2O[C@@H]3COP(=O)(O)O[C@@H]4[C@@H](COP(=O)(O)O[C@@H]2[C@@H]3O)C[C@@H](Nc2ccncn2)[C@@H]4F)c(=O)[nH]1` [Compound I-46, 2-amino-9-[(5R,7R,8R,12aR,14R,15S,15aR,16R)-15-fluoro-2,10,16-trihydroxy-2,10-dioxido-14-(pyrimidin-4-ylamino)decahydro-5,8-methanocyclopenta[1][1,3,6,9,11,2,10]pentaoxadiphosphacyclotetradecin-7-yl]-1,9-dihydro-6H-purin-6-one], the EC50 in assay [1] (Homo sapiens, THP1-Dual, 20 h) lay in the range of 10 to 25 µM. Also, the IC50 in assay [2] is less than 1000 nM.
Consider `Nc1nc2c(ncn2[C@@H]2O[C@@H]3COP(=O)(S)O[C@@H]4[C@@H](COP(=O)(S)O[C@@H]2[C@@H]3O)C[C@@H](Oc2ccncn2)[C@@H]4F)c(=O)[nH]1` (single isomer, unassigned) [Compound I-39b], for which, in assay [1], the EC50 is less than 1 µM. Besides, the IC50 in assay [2] is less than 1000 nM.
Take `Nc1nc2c(ncn2[C@@H]2O[C@@H]3COP(=O)(S)O[C@@H]4[C@@H](COP(=O)(O)O[C@@H]2[C@@H]3O)C[C@@H](Nc2ncncn2)[C@@H]4F)c(=O)[nH]1` (single isomer, unassigned) [Compound I-43]: the EC50 in assay [1] (Homo sapiens, THP1-Dual, 20 h) fell in the range of 1 to 10 µM.
Take `Nc1nc2c(ncn2[C@@H]2O[C@@H]3COP(=O)(O)O[C@@H]4[C@@H](COP(=O)(S)O[C@@H]2[C@@H]3F)C[C@@H](Nc2ccncn2)[C@@H]4F)c(=O)[nH]1` (stereo partly drawn) [Compound I-24a, 2-amino-9-[(5R,7R,8S,10S,12aR,14R,15S,15aR,16R)-15,16-difluoro-2-hydroxy-2,10-dioxido-14-(pyrimidin-4-ylamino)-10-sulfanyldecahydro-5,8-methanocyclopenta[1][1,3,6,9,11,2,10]pentaoxadiphosphacyclotetradecin-7-yl]-1,9-dihydro-6H-purin-6-one]: the EC50 in assay [1] (Homo sapiens, THP1-Dual, 20 h) lay in the range of 1 to 10 µM. The IC50 in assay [2] is less than 1000 nM.
As for `Nc1nc2c(ncn2[C@@H]2O[C@@H]3COP(=O)(S)O[C@H]4C[C@H](Nc5ccncn5)C[C@@H]4COP(=O)(O)O[C@@H]2[C@@H]3O)c(=O)[nH]1` (stereo partly drawn) [Compound I-18, 2-amino-9-[(2S,5R,7R,8R,12aR,14R,15aS,16R)-10,16-dihydroxy-2,10-dioxido-14-(pyrimidin-4-ylamino)-2-sulfanyldecahydro-5,8-methanocyclopenta[1][1,3,6,9,11,2,10]pentaoxadiphosphacyclotetradecin-7-yl]-1,9-dihydro-6H-purin-6-one], the EC50 in assay [1] (Homo sapiens, THP1-Dual, 20 h) lay in the range of 1 to 10 µM. Also, in assay [2], the IC50 was less than 1000 nM.
With `Nc1nc2c(ncn2[C@@H]2O[C@@H]3COP(=O)(S)O[C@@H]4[C@@H](COP(=O)(S)O[C@@H]2[C@@H]3F)C[C@@H](Nc2ccncn2)[C@@H]4F)c(=O)[nH]1` (stereo partly drawn) [Compound I-38a, 2-amino-9-[(2S,5R,7R,8S,10S,12aR,14R,15S,15aR,16R)-15,16-difluoro-2,10-dioxido-14-(pyrimidin-4-ylamino)-2,10-disulfanyldecahydro-5,8-methanocyclopenta[1][1,3,6,9,11,2,10]pentaoxadiphosphacyclotetradecin-7-yl]-1,9-dihydro-6H-purin-6-one], in assay [1] (Homo sapiens, THP1-Dual, 20 h), the EC50 was in the range of 1 to 10 µM. Moreover, in assay [2], the IC50 was less than 1000 nM.
For `Nc1nc2c(ncn2[C@@H]2O[C@@H]3COP(=O)(O)O[C@@H]4[C@@H](COP(=O)(O)O[C@@H]2[C@@H]3O)C[C@@H](Nc2ncncn2)[C@@H]4F)c(=O)[nH]1` [Compound I-40, 2-amino-9-[(5R,7R,8R,12aR,14R,15S,15aR,16R)-15-fluoro-2,10,16-trihydroxy-2,10-dioxido-14-(1,3,5-triazin-2-ylamino)decahydro-5,8-methanocyclopenta[1][1,3,6,9,11,2,10]pentaoxadiphosphacyclotetradecin-7-yl]-1,9-dihydro-6H-purin-6-one], the 50% effective concentration (EC50) in assay [1] (Homo sapiens, THP1-Dual, 20 h) fell in the range of 10 to 25 µM. For the same compound, the IC50 in assay [2] was less than 1000 nM.
In the same order, the values of `Nc1nc2c(ncn2[C@@H]2O[C@@H]3COP(=O)(S)O[C@@H]4[C@@H](COP(=O)(S)O[C@@H]2[C@@H]3O)C[C@@H](Nc2ncncn2)[C@@H]4F)c(=O)[nH]1` (single isomer, unassigned) [Compound I-45] are 1 to 10 µM and less than 1000 nM.
As for `Nc1nc2c(ncn2[C@@H]2O[C@@H]3COP(=O)(S)O[C@H]4C[C@H](Nc5ncncc5F)C[C@@H]4COP(=O)(S)O[C@@H]2[C@@H]3O)c(=O)[nH]1` (stereo partly drawn) [Compound I-34b, 2-amino-9-{(2S,5R,7R,8R,10S,12aR,14R,15aS,16R)-14-[(5-fluoropyrimidin-4-yl)amino]-16-hydroxy-2,10-dioxido-2,10-disulfanyldecahydro-5,8-methanocyclopenta [1][1,3,6,9,11,2,10]pentaoxadiphosphacyclotetradecin-7-yl}-1,9-dihydro-6H-purin-6-one], the EC50 in assay [1] was 1 to 10 µM. The IC50 in assay [2] is less than 1000 nM.
Consider `Nc1nc2c(ncn2[C@@H]2O[C@@H]3COP(=O)(S)O[C@H]4C[C@H](Nc5ncncc5F)C[C@@H]4COP(=O)(S)O[C@@H]2[C@@H]3O)c(=O)[nH]1` (stereo partly drawn) [Compound I-34a, 2-amino-9-{(2S,5R,7R,8R,10S,12aR,14R,15aS,16R)-14-[(5-fluoropyrimidin-4-yl)amino]-16-hydroxy-2,10-dioxido-2,10-disulfanyldecahydro-5,8-methanocyclopenta[1][1,3,6,9,11,2,10]pentaoxadiphosphacyclotetradecin-7-yl}-1,9-dihydro-6H-purin-6-one], for which the EC50 in assay [1] (Homo sapiens, THP1-Dual, 20 h) was less than 1 µM. Further, the IC50 in assay [2] was less than 1000 nM.
As for `Nc1nc2c(ncn2[C@@H]2O[C@@H]3COP(=O)(O)O[C@H]4C[C@H](Nc5ncncn5)C[C@@H]4COP(=O)(O)O[C@@H]2[C@@H]3O)c(=O)[nH]1` [Compound I-27, 2-amino-9-[(5R,7R,8R,12aR,14R,15aS,16R)-2,10,16-trihydroxy-2,10-dioxido-14-(1,3,5-triazin-2-ylamino)decahydro-5,8-methanocyclopenta[1][1,3,6,9,11,2,10]pentaoxadiphosphacyclotetradecin-7-yl]-1,9-dihydro-6H-purin-6-one], the EC50 in assay [1] (Homo sapiens, THP1-Dual, 20 h) is 10 to 25 µM. Also, in assay [2], the IC50 was less than 1000 nM.
For `Nc1nc2c(ncn2[C@@H]2O[C@@H]3COP(=O)(S)O[C@H]4C[C@H](Oc5ccncn5)C[C@@H]4COP(=O)(O)O[C@@H]2[C@@H]3O)c(=O)[nH]1` (stereo partly drawn) [Compound I-17, 2-amino-9-[(2S,5R,7R,8R,12aR,14R,15aS,16R)-10,16-dihydroxy-2,10-dioxido-14-(pyrimidin-4-yloxy)-2-sulfanyldecahydro-5,8-methanocyclopenta[1][1,3,6,9,11,2,10]pentaoxadiphosphacyclotetradecin-7-yl]-1,9-dihydro-6H-purin-6-one], in that order: 1 to 10 µM and less than 1000 nM.
